Laboratory results published in patent publication US20200370050A1, “CELL PROLIFERATION INHIBITOR AND CANCER TREATMENT OR PREVENTION PHARMACEUTICAL COMPOSITION INCLUDING CELL PROLIFERATION INHIBITOR” (priority 2017, published 2020).

Assays:
[1] = system: HCT116 cells; assay: Effect of CRAF protein fragment on cell growth, number of living cells by WST assay (CCK-8); assay type: cell-based, human; conditions: 1.0×10^4 cells seeded (similar tendency at 2.0×10^4), transfected with pcDNA-hRAF384, 100 ng plasmid per well, 0-96 h, control empty vector pcDNA3.1(+), FIG. 5 part A
Method: (§1) The CRAF protein fragment expression plasmid pcDNA-hRAF384 (5807 bp) was prepared by cloning the region of positions 332 to 718 of the human CRAF gene (SEQ ID NO: 6) downstream of a CMV (cytomegalovirus) promoter in the vector pcDNA3.1(+) (Thermo Fisher Scientific). The plasmid expresses a CRAF protein fragment (a polypeptide having the amino acid sequence set forth in SEQ ID NO: 9) of positions 56 to 184 of the human CRAF protein (SEQ ID NO: 5).
(§2) HCT116 cells (KRAS mutation-positive human colon cancer cells) were obtained from ATCC. Since HCT116 cells have KRAS in which the position 13 amino acid glycine (G) is activatingly mutated to aspartic acid (D), the RAS/RAF/ME/ERK signaling cascade is activated in HCT116 cells.
(§3) The HCT116 or DLD-1 cells were seeded at 1.0×10^4 or 2.0 x 10^4 cells per well of 96-well plates and cultured in a McCoy's SA medium in an environment of 5% CO2 at 37° C. for 24 h. The cultured cells were transfected with the CRAF protein fragment expression plasmid pcDNA-hRAF384 using Lipofectamine 3000 (Thermo Fisher Scientific). As a control, the cells were transfected with the empty vector pcDNA3.1(+) (Thermo Fisher Scientific). […]
(§4) Immediately (0 h), 24 h, 48 h, 72 h, and 96 h after the cultivation, the cells were collected and measured for the number of living cells by WST assay. […]

[2] = system: DLD-1 cells; assay: as above; assay type: cell-based, human; conditions: 1.0×10^4 cells seeded (similar tendency at 2.0×10^4), transfected with pcDNA-hRAF384, 100 ng plasmid per well, 0-96 h, control empty vector pcDNA3.1(+), FIG. 5 part B
Method: as §1
as §2, with “DLD-1” for “HCT116”, “JCRB Cell Bank of National Institutes of Biomedical innovation, Health and Nutrition.” for “ATCC.”, “RAS/RAF/MEK/ERK” for “RAS/RAF/ME/ERK”
as §3, §4

CRAF protein fragment: Polypeptide of SEQ ID NO: 9, positions 56 to 184 of human CRAF protein, expressed from plasmid pcDNA-hRAF384
cell growth (number of living cells) as compared to the control [1]: reduced growth
cell growth (number of living cells) as compared to the control [2]: reduced growth
